In brackets after ≈: the same amount, converted by molar mass.
How the values were obtained:
E. coli TOP10 [1] = experiment: Membrane damage assay in MHB II (GFP loss, PI uptake); format: cell-based; settings: at its MIC
E. coli TOP10 [2] = format: cell-based; settings: data not shown
Procedure: Bacterial cells were grown in cation-adjusted Mueller Hinton Broth (MHB II) overnight to stationary phase. The cultures were then supplemented with 200 g l^−1 glycerol, aliquoted, and frozen at −80°C. […] The purified peptides were thawed and the concentration was determined by RP-HPLC as described before. The peptides were diluted with sterile water to 4-fold the desired assays starting concentration and to a final volume of 50 μl. […] The first well of each MIC dilution series was filled with 20 μl of 2-fold concentrated MHB II, wells 2–11 with 20 μl of MHB II, and well 12 with 40 μl MHB II (sterility control). Next, 20 μl of the peptide dilution was added to the first well, mixed, and a log2-serial dilution was performed from wells 1 to 10 (20 μl transfer volume). Well 11 served as growth control (i.e., no peptide added). In the last step, 20 μl of the bacterial cell suspension was added to wells 1–11 either using the pipetting robot (E. coli TOP10, BW25113, BW25113 ΔsbmA, and ATCC 25922) or by manual pipetting (E. coli clinical isolates). The plates were sealed airtight and incubated for 18 h without shaking at 37°C before reading the OD using an Infinite 200 PRO plate reader (Tecan, Männedorf, CH). […] All MIC experiments were determined in technical replicate.

CC[C@H](C)[C@H](NC(=O)CN)C(=O)NCC(=O)N[C@@H](C)C(=O)N[C@H](C(=O)N[C@@H](CC(C)C)C(=O)N[C@@H](CCCCN)C(=O)N[C@H](C(=O)N[C@@H](CC(C)C)C(=O)N[C@H](C(=O)N[C@H](C(=O)NCC(=O)N[C@@H](CC(C)C)C(=O)N1CCC[C@H]1C(=O)N[C@@H](C)C(=O)N[C@@H](CC(C)C)C(=O)N[C@H](C(=O)N[C@@H](CO)C(=O)N[C@@H](Cc1c[nH]c2ccccc12)C(=O)N[C@H](C(=O)N[C@@H](CCCCN)C(=O)N[C@@H](CCCNC(=N)N)C(=O)N[C@@H](CCCCN)C(=O)N[C@@H](CCCNC(=N)N)C(=O)N[C@@H](CCC(N)=O)C(=O)N[C@@H](CCC(N)=O)C(N)=O)[C@@H](C)CC)[C@@H](C)CC)[C@@H](C)O)[C@@H](C)O)C(C)C)C(C)C [melittin]
PI uptake and loss of GFP (E. coli TOP10 [1]): rapidly induced PI uptake and loss of GFP | MIC (E. coli TOP10 [2]): 5.0 µM (≈ 14.2 µg/mL)
